Measurements from patent publication US8604055B2, “Substituted benzylamino quinolines as cholesterol ester-transfer protein inhibitors” (Dr. Reddy's Laboratories Ltd., priority 2004, dated 2013).

How the values were obtained:
[1] = molecular target: T1, Recombinant CETP enzyme (Homo sapiens, UniProt P11597); test: In vitro fluorescence-based CETP inhibition assay (BODIPY-CE transfer from donor to acceptor microemulsions); type: biochemical; details: recombinant CETP 0.14 ng/μl; transfer of fluorescent cholesteryl ester monitored over 2 hours; vs DMSO controls
T1 construct: purchased Cardiovascular Targets
T1 sequence (P11597 18-493): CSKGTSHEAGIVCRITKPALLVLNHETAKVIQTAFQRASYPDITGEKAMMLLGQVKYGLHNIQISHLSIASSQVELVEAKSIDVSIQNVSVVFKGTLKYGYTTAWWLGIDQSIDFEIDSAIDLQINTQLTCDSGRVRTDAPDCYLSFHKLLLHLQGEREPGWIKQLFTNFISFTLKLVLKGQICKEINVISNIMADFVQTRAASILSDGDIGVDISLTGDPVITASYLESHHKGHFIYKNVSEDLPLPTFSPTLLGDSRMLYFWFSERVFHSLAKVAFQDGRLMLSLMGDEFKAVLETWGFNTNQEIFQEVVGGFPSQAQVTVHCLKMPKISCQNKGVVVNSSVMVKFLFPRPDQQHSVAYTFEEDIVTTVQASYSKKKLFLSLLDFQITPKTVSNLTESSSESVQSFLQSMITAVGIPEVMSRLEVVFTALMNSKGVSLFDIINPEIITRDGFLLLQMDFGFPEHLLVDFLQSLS
Summary of the method: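 Recombinant human CETP (0.14 ng/μl final) transfers BODIPY-CE from donor to acceptor microemulsions in buffer with 0.67 ug/mL human HDL. Fluorescence (ex 492/em 516 nm) monitored over 2 h and activity expressed as % of DMSO control. IC50 from activity curves; also run with 3% human serum albumin.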

Structure (SMILES) | melting point [°C] | IC50 [1] [nM]
CCOC(=N)N(Cc1cc(C(F)(F)F)cc(C(F)(F)F)c1)Cc1cc2ccccc2nc1N(CC)CC1CCCC1 [Example 61] | 158 to 160 | ≤ 5000
CCN(CC1CCCC1)c1nc2ccccc2cc1CN(Cc1cc(C(F)(F)F)cc(C(F)(F)F)c1)c1nnc(C)o1 [Example 58, (3-{[(3,5-bis-trifluoromethyl-benzyl)-(5-methyl-[1,3,4]oxodiazol-2-yl)-amino]-methyl)-quinolin-2-yl)-cyclopentylmethyl-ethyl-amine] | 126 to 127 | ≤ 5000
CCN(CC1CCCC1)c1nc2ccccc2cc1CN(Cc1cc(C(F)(F)F)cc(C(F)(F)F)c1)C(N)=O [Example 59, 1-(3,5 bistrifluoromethyl-benzyl)-1-[(2-cyclopentylmethyl-ethyl-amino)-quinoline-3-ylmethyl]-urea] | 92 to 94 | ≤ 5000
CCN(CC1CCCC1)c1nc2ccccc2cc1CN(Cc1cc(C(F)(F)F)cc(C(F)(F)F)c1)c1nnnn1C [Example 53, (3-{[(3,5-bis-trifluoromethyl-benzyl)-(1-methyl-1H-tetrazol-5-yl)-amino]-methyl}-quinolin-2-yl)-cyclopentylmethyl-ethyl-amine] | 110 | ≤ 5000
CCCSc1nc2c(C)cccc2cc1CN(Cc1cc(C(F)(F)F)cc(C(F)(F)F)c1)C(=O)OCC [Example 135, (3,5-bis-trifluoromethyl-benzyl)-(8-methyl-2-propylsulfanyl-quinolin-3-ylmethyl)-carbamic acid ethyl ester] | 42 | 

The remaining lines, values ahead:

melting point [°C] | IC50 [1] [nM] | Structure (SMILES)
76 to 77 | ≤ 1000 | CCN(CC1CCC1)c1nc2c(cnn2CC)cc1CN(Cc1cc(C(F)(F)F)cc(C(F)(F)F)c1)c1nnn(C)n1 [Example 15, (5-{[(3,5-bis-trifluoromethyl-benzyl)-(2-methyl-2H-tetrazol-5-yl)-amino]-methyl}-1-ethyl-1H-pyrazolo[3,4-b]-yridin-6-yl)-cyclobutylmethyl-ethyl-amine]
63 | ≤ 1000 | Cc1cccc2cc(CN(Cc3cc(C(F)(F)F)cc(C(F)(F)F)c3)c3nnn(C)n3)c(N(CC3CC3)CC3CC3)nc12 [Example 57]
43 to 44 | ≤ 1000 | CCN(c1nc2c(cc1CN(Cc1cc(C(F)(F)F)cc(C(F)(F)F)c1)c1nnn(C)n1)c(C)nn2C)C1CCCC1 [Example 8, (5-{[(3,5-bis-trifluoromethyl-benzyl)-(2-methyl-2H-tetrazole-5-yl)-amino]-methyl}-1,3-dimethyl-1H-pyrazolo[3,4-b]pyridin-6-yl)-cyclopentyl-ethyl-amine]
97 | ≤ 1000 | CCN(CC1CCCC1)c1nc2ccccc2cc1CN(Cc1cc(C(F)(F)F)cc(C(F)(F)F)c1)c1nnn(C)n1 [Example 52]
84 to 85 | ≤ 1000 | Cc1nn(C)c2nc(N(CC3CCC3)CC3CC3)c(CN(Cc3cc(C(F)(F)F)cc(C(F)(F)F)c3)c3nnn(C)n3)cc12 [Example 5, (5-{[(3,5-bis-trifluoromethyl-benzyl)-(2-methyl-2H-tetrazole-5-yl)-amino]-methyl}-1,3-dimethyl-1H-pyrazolo[3,4-b]pyridin-6-yl)-cyclobutylmethyl-cyclopropylmethyl-amine]
72 to 73 | ≤ 1000 | CCN(CC(C)(C)C)c1nc2c(cc1CN(Cc1cc(C(F)(F)F)cc(C(F)(F)F)c1)c1nnn(C)n1)c(C)nn2C [Example 6, (5-{[(3,5-bis-trifluoromethyl-benzyl)-(2-methyl-2H-tetrazole-5-yl)-amino]-methyl}-1,3-dimethyl-1H-pyrazolo[3,4-b]pyridin-6-yl)-(2,2-dimethyl-propyl)-ethyl-amine]
139 | ≤ 1000 | CCN(CC1CCCC1)c1nc2c(cc1CN(Cc1cc(C(F)(F)F)cc(C(F)(F)F)c1)c1nc(C(F)(F)F)co1)c(C)nn2C [Example 22, (5-{[(3,5-bis-trifluoromethyl-benzyl)-(4-trifluoromethyl-oxazol-2-yl)-amino]-methyl}-1,3-dimethyl-1H-pyrazolo[3,4-b]-pyridin-6-yl)-cyclopentylmethyl-ethyl-amine]
